Assay results reported in US9371330B2, “Substituted pyrazino[1,2-a]pyrimidines useful as CBP/catenin antagonists for enhancing asymmetric division of somatic stem cells” (University of Southern California, priority 2011, dated 2016).

Key:
[1] = tested on: PC-12 cells; assay: PC-12 cells with FAD mutant PS-1 (L286V): neuronal differentiation; format: cell-based
Source text: However, the effects of PS-1 mutations on the stability of beta-catenin, TCF/beta-catenin signaling, and thereby its potential role in AD remain controversial. Applicant has shown that introduction of a FAD mutant PS-1 (L286V) into PC-12 cells causes increased TCF/beta-catenin signaling, leading to the inhibition of neurite outgrowth. […] In the CNS, EpB2 expression is associated with axonal guidance (16). […] In initial in vivo studies, applicant treated penta-transgenic mice that over express mutant APP(695) (Swedish (K670N,M671L), Florida ([…]) and London (V717I)) and PS-1 (M146L and L286V) mutations with ICG-001 for 2 months (months 2-4). These mice normally develop massive cerebral deposition of Aβ starting at 6 weeks of age.

[2] = biological target: CBP/beta-catenin interaction (Homo sapiens, UniProt Q92793); assay: disruption of CBP/beta-catenin interaction; format: binding
Source text: Applicant next mapped the binding domains between CBP and beta-catenin, as well as between p300 and beta-catenin. The C-terminal trans-activating region of beta-catenin (647-781) interacted with the same 1-111 amino acids of both CBP and p300 (23). However, only the interaction between CBP and beta-catenin was disrupted by ICG-001, and not the p300/beta-catenin interaction.

[3] = tested on: drug resistant leukemia stem cells; assay: NOD/SCID/IL2rγ-/- mouse model of engrafted human CML; format: in vivo
Source text: Chronic myelogenous leukemia (CML). Despite the stunning clinical success achieved to date in chronic phase CML patients treated with the BCR-ABL antagonist Gleevec/Imatinib (IM), responses in advanced phase patients are often short-lived, and patients invariably undergo disease progression. Furthermore, resistance to IM develops in 2% to 4% of patients annually and IM dose escalation is generally not sufficient to control the disease. Several mechanisms that contribute to tyrosine kinase inhibitor (TKI) resistance have been proposed including the insensitivity of quiescent CML stem cells to TKIs due to low expression of BCR-ABL and the emergence of drug resistant leukemic clones associated with increased nuclear catenin levels, a hallmark of increased Wnt/catenin transcription. […] Epigenetic silencing of negative regulators of the Wnt signaling cascade is also frequently associated with leukemias, including CML. […] The mice treated with one course (28 days from day 13-41 after leukemia engraftment) of CBP/catenin antagonist plus bcr-abl antagonist are essentially cured of leukemia and live as long (approximately 2 years) as their littermates that were never engrafted with leukemia.

[4] = topical treatment of pregnant mice throughout pregnancy, offspring outcome; format: in vivo, mouse; details: mothers treated topically 0.5M
Source text: Acute Promyelocytic Leukemia (APL) is unique among myeloid leukemias due to its sensitivity to all-trans retinoic acid (ATRA), a derivative of vitamin A. Treatment with ATRA dissociates the NCOR-HDACL complex from RAR and allows DNA transcription and differentiation of the immature leukemic promyelocytes into mature granulocytes by targeting the oncogenic transcription factor and its aberrant action. […] A large number of scientific studies have also investigated a possible role for vitamin D in cancer prevention, including colon, prostate, breast, pancreatic and skin cancer. […] However, there are also reports of synergistic effects on the activation of gene expression by ATRA and Wnt for example (47). […] This is the same region of these coactivator proteins (i.e., CBP and p300) that partners with catenin (both beta and gamma) and the CBP/catenin antagonists (e.g., ICG-001) also bind to this region. These nuclear receptor ligands have many of the same differentiating effects on stem cell populations that applicant has observed with specific CBP/catenin antagonists. Although, both Vitamin A and D are required during development and have many beneficial health effects in adulthood, both are teratogenic at high levels. […]

[5] = tested on: Wnt/catenin transcription in SW480 colon carcinoma cells; assay: TOPFLASH TCF/catenin luciferase reporter; format: cell-based; details: Homo sapiens
Source text: ICG-001. Applicant's pharmacologic tools were identified using cell-based forward chemical genomic screens of small molecule secondary structure template chemical libraries (22).

[6] = tested on: hair follicle; details: cited from earlier work
[7] = tested on: MDA-MB-231 cells; assay: MDA-MB-231 stem/tumor initiating cell markers; format: cell-based
Source text: This phenotype CD44^hi, CD24^lo has been associated with a subpopulation of cells that behave like a breast cancer stem/tumor initiating cell population (51). […] Beyond reduction of survivin message level, there is a gene expression profile consistent with the occurrence of a mesenchymal to epithelial (MET) transition (i.e. decreased expression of twist, vimentin and S100A4 and an increase in E-cadherin expression). Recently, there have been a number of papers, which have correlated epithelial to mesenchymal transition (EMT) with a CSC phenotype (52). EMT is a normal physiologic process that is important in development and in adults, for example in wound healing, but pathophysiologically is associated with tumor metastasis and organ fibrosis (see later discussion on fibrosis). Specific CBP/catenin antagonists can reverse this aberrant EMT in vivo (EMT also plays a critical role in the skin in hair loss etc. J Dermatol Sci. 2011 January; 61(1):7-13. Epub 2010 Dec. 5; epithelial-mesenchymal transition (EMT) plays important roles not only in the morphogenesis but also in wound repair, tissue fibrosis and cancer progression. Recently, regulatory mechanism of this process has been elaborately elucidated. EMT can be a new therapeutic target for treating skin ulcer, fibrosing alopecia, and malignant cutaneous cancers, including squamous cell carcinoma and melanoma).

Chain of CBP/beta-catenin interaction (Q92793 1-111): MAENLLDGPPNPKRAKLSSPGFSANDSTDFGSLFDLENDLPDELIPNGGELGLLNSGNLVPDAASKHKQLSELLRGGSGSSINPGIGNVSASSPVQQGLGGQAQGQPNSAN

O=C1[C@H](Cc2ccc(O)cc2)N2C(=O)CCN(C(=O)NCc3ccccc3)[C@H]2CN1Cc1cccc2ccccc12 [ICG-001]
GAP43 expression ([1]; NGF-induced differentiation, vs untreated cells): dramatically increased
neuronal differentiation and neurite outgrowth ([1]; PS-1 (L286V) mutant cells): rescues the defects in neuronal differentiation and neurite outgrowth
disruption of the CBP/beta-catenin interaction [2]: disrupted
effect on normal endogenous hematopoiesis ([3]; mouse, in vivo): without deleterious effects to normal endogenous hematopoiesis
elimination of drug resistant leukemia stem cells ([3]; with bcr-abl antagonist): drug resistant leukemia stem cells can be eliminated
weight and size of offspring at 6 weeks of age ([4]; ~E0.5 to ~E20): normal weight and size
effects on germ cell populations of offspring ([4]; second generation bred): no deleterious effects on germ cell populations
IC50 [5]: 3 µM
survivin expression [6]: decreased survivin expression
hair fiber elongation ([6]; dose-dependent): significantly reduced hair fiber elongation
CD44 expression [7]: decreasing CD44 expression
side population (SP) and ALDH activity [7]: dramatically decreases the side population (SP) and ALDH activity
cell surface CD24 expression ([7]; 24 h): significantly increased the expression of cell surface CD24
